# Results from paper PMC10894229, “Novel antimicrobial peptides against Cutibacterium acnes designed by deep learning” (Scientific Reports, 2024).
# Read-outs that look alike come from different tables or passages of the source.
# System: C. acnes (BNCC 336649)
# Settings: for Concentration with antimicrobial activity >50%: C. acnes; for Concentration with antimicrobial activity >50% / Category of in vitro test antimicrobial activity against C. acnes: supplementary Table 5; for Antimicrobial activity > 50% against C. acnes: broth microdilution, 48 h, OD 630 nm
# Procedure: The strain of C. acnes (BNCC 336649) was cultured in Wilkins-Chalgren Anaerobe Broth (QingDao RiShui Bio-technologies, 11071) at 37 °C under an anaerobic atmosphere performed by a Labiophy HL-B automatic hypoxic workstation (Dalian, Liaoning Province, Labiophy HL-B), inflated with a gas mix of 15% carbon dioxide, 83% nitrogen, and 2% hydrogen.
# Logarithmic phase growth bacteria were used for antimicrobial testing.
# To determine the MIC values, the broth microdilution method was used. […] Briefly, peptide samples were prepared as a stock solution in water and then diluted. 180 μL of the bacterial suspension (10^7 CFU/mL) and 20 μL of the tested sample were added together into 96-Well Deep Well Plates and incubated 24 h for E. coli and S. aureus or 48 h for C. acnes and C. albicans. For each test, two columns of the plate were kept for sterility control (broth only) and growth control (broth with bacterial inoculums, no antibiotics). The optical density of cultures was measured at 630 nm by a microplate reader (SYNERGY-H1, BioTek, USA) to estimate bacterial growth. All experiments were conducted in triplicate. We used ciprofloxacin (CPFX) as the antibiotic control for antimicrobial testing.
Sequence,Concentration with antimicrobial activity >50%,Antimicrobial activity > 50% against C. acnes (at 25 µg/mL),Antimicrobial activity > 50% against C. acnes (at 50 µg/mL),Antimicrobial activity > 50% against C. acnes (at 100 µg/mL),Category of in vitro test antimicrobial activity against C. acnes
LQLLKQFRKVLKKLS [AMP-13],25 µg/mL,Inhibit (A peptide was deemed to have antimicrobial activity if C. acnes growth was inhibited by more than 50% at a given concentration),Inhibit (A peptide was deemed to have antimicrobial activity if C. acnes growth was inhibited by more than 50% at a given concentration),Inhibit (A peptide was deemed to have antimicrobial activity if C. acnes growth was inhibited by more than 50% at a given concentration),Medium AMP
KIFWRVAKSLFKSY [AMP-30],100 µg/mL,No (A peptide was deemed to have antimicrobial activity if C. acnes growth was inhibited by more than 50% at a given concentration),No (A peptide was deemed to have antimicrobial activity if C. acnes growth was inhibited by more than 50% at a given concentration),Inhibit (A peptide was deemed to have antimicrobial activity if C. acnes growth was inhibited by more than 50% at a given concentration),Weak AMP
KAIAALAKKIIKVAK [AMP-24],no,No (A peptide was deemed to have antimicrobial activity if C. acnes growth was inhibited by more than 50% at a given concentration),No (A peptide was deemed to have antimicrobial activity if C. acnes growth was inhibited by more than 50% at a given concentration),No (A peptide was deemed to have antimicrobial activity if C. acnes growth was inhibited by more than 50% at a given concentration),No AMP
LLSLIRRTVARLKKA [AMP-18],25 µg/mL,Inhibit (A peptide was deemed to have antimicrobial activity if C. acnes growth was inhibited by more than 50% at a given concentration),Inhibit (A peptide was deemed to have antimicrobial activity if C. acnes growth was inhibited by more than 50% at a given concentration),Inhibit (A peptide was deemed to have antimicrobial activity if C. acnes growth was inhibited by more than 50% at a given concentration),Medium AMP
KALAATVKKVAKLIK [AMP-34],no,No (A peptide was deemed to have antimicrobial activity if C. acnes growth was inhibited by more than 50% at a given concentration),No (A peptide was deemed to have antimicrobial activity if C. acnes growth was inhibited by more than 50% at a given concentration),No (A peptide was deemed to have antimicrobial activity if C. acnes growth was inhibited by more than 50% at a given concentration),No AMP
DALRALHHLLKRAL [AMP-42],no,No (A peptide was deemed to have antimicrobial activity if C. acnes growth was inhibited by more than 50% at a given concentration),No (A peptide was deemed to have antimicrobial activity if C. acnes growth was inhibited by more than 50% at a given concentration),No (A peptide was deemed to have antimicrobial activity if C. acnes growth was inhibited by more than 50% at a given concentration),No AMP
CKAVLRWVSRLKKL [AMP-39],25 µg/mL,Inhibit (A peptide was deemed to have antimicrobial activity if C. acnes growth was inhibited by more than 50% at a given concentration),Inhibit (A peptide was deemed to have antimicrobial activity if C. acnes growth was inhibited by more than 50% at a given concentration),Inhibit (A peptide was deemed to have antimicrobial activity if C. acnes growth was inhibited by more than 50% at a given concentration),Medium AMP
WFKAIPQAISALKKI [AMP-26],100 µg/mL,No (A peptide was deemed to have antimicrobial activity if C. acnes growth was inhibited by more than 50% at a given concentration),No (A peptide was deemed to have antimicrobial activity if C. acnes growth was inhibited by more than 50% at a given concentration),Inhibit (A peptide was deemed to have antimicrobial activity if C. acnes growth was inhibited by more than 50% at a given concentration),Weak AMP
ALIKKLERTLRKAI [AMP-37],no,No (A peptide was deemed to have antimicrobial activity if C. acnes growth was inhibited by more than 50% at a given concentration),No (A peptide was deemed to have antimicrobial activity if C. acnes growth was inhibited by more than 50% at a given concentration),No (A peptide was deemed to have antimicrobial activity if C. acnes growth was inhibited by more than 50% at a given concentration),No AMP
VKRLKKAFKKLARLV [AMP-32],–,No (A peptide was deemed to have antimicrobial activity if C. acnes growth was inhibited by more than 50% at a given concentration),Inhibit (A peptide was deemed to have antimicrobial activity if C. acnes growth was inhibited by more than 50% at a given concentration),Inhibit (A peptide was deemed to have antimicrobial activity if C. acnes growth was inhibited by more than 50% at a given concentration),Medium AMP
GLTLLKKFLHAAKKF [AMP-23],25 µg/mL,Inhibit (A peptide was deemed to have antimicrobial activity if C. acnes growth was inhibited by more than 50% at a given concentration),Inhibit (A peptide was deemed to have antimicrobial activity if C. acnes growth was inhibited by more than 50% at a given concentration),Inhibit (A peptide was deemed to have antimicrobial activity if C. acnes growth was inhibited by more than 50% at a given concentration),Medium AMP
AIHKLAHHIAKLAKK [AMP-35],no,No (A peptide was deemed to have antimicrobial activity if C. acnes growth was inhibited by more than 50% at a given concentration),No (A peptide was deemed to have antimicrobial activity if C. acnes growth was inhibited by more than 50% at a given concentration),No (A peptide was deemed to have antimicrobial activity if C. acnes growth was inhibited by more than 50% at a given concentration),No AMP
KRLIKWLNVAKKVV [AMP-3],100 µg/mL,No (A peptide was deemed to have antimicrobial activity if C. acnes growth was inhibited by more than 50% at a given concentration),No (A peptide was deemed to have antimicrobial activity if C. acnes growth was inhibited by more than 50% at a given concentration),Inhibit (A peptide was deemed to have antimicrobial activity if C. acnes growth was inhibited by more than 50% at a given concentration),Weak AMP
WLSKTAKKLWNVFKS [AMP-15],25 µg/mL,Inhibit (A peptide was deemed to have antimicrobial activity if C. acnes growth was inhibited by more than 50% at a given concentration),Inhibit (A peptide was deemed to have antimicrobial activity if C. acnes growth was inhibited by more than 50% at a given concentration),Inhibit (A peptide was deemed to have antimicrobial activity if C. acnes growth was inhibited by more than 50% at a given concentration),Medium AMP
KRIGSILGRWLHLAK [AMP-2],25 µg/mL,Inhibit (A peptide was deemed to have antimicrobial activity if C. acnes growth was inhibited by more than 50% at a given concentration),Inhibit (A peptide was deemed to have antimicrobial activity if C. acnes growth was inhibited by more than 50% at a given concentration),Inhibit (A peptide was deemed to have antimicrobial activity if C. acnes growth was inhibited by more than 50% at a given concentration),Medium AMP
